Measured values reported in US8513234B2, “HIV integrase inhibitors” (Merck Sharp & Dohme Corp., priority 2008, dated 2013).
Read-outs that look alike come from different tables or passages of the source.

Legend:
HIV-1 = experiment: Inhibition of acute HIV-1 infection of T-lymphoid cells (spread assay); type: cell-based
Description: Assay for Inhibition of HIV-1 Replication
Assays for the inhibition of acute HIV-1 infection of T-lymphoid cells were conducted in accordance with Vacca, J. P. et al, Proc. Natl. Acad. Sci. USA 1994, 91: 4096.

[1] = system: virus containing G140S/Q148H mutation in the integrase gene; conditions: k = IC50(mutant)/IC50(wild type)
Description: (§1) An assay for measuring the inhibition of acute HIV infection with HeLa P4-2 cells in a single cycle infectivity assay was conducted using methods described in Joyce et al., J. Biol. Chem. 2002, 277: 45811, Hazuda et al., Science 2000, 287: 646, and Kimpton et al, J. Virol. 1992, 66: 2232. Proviral plasmids encoding viruses containing specific mutations in the integrase gene (N155H, Q148R, Y143R, E92Q, or G140S/Q148H) were generated by site-directed mutagenesis, and viruses were produced by transfecting 293T cells with the appropriate proviral plasmids.

[2] = system: virus containing Q148R mutation in the integrase gene; conditions: k = IC50(mutant)/IC50(wild type)
Description: as §1

[3] = system: virus containing N155H mutation in the integrase gene; conditions: k = IC50(mutant)/IC50(wild type)
Description: as §1

[4] = system: virus containing Y143R mutation in the integrase gene; conditions: k = IC50(mutant)/IC50(wild type)
Description: as §1

wild type IIIB = experiment: Single cycle infectivity assay in HeLa P4-2 cells, wild type virus; type: cell-based, HIV; conditions: single cycle infectivity, wild type IIIB, read-out: wild type IIIB IC50
[5] = target: T1, recombinant integrase (HIV-1 integrase) (Human immunodeficiency virus type 1 group M subtype B, UniProt P04585); experiment: HIV-1 integrase assay: strand transfer catalyzed by recombinant integrase; type: biochemical; conditions: strand transfer activity
T1 construct: Assays for the strand transfer activity of integrase were conducted in accordance with WO 02/30930 for recombinant integrase
Description: HIV-1 Integrase Assay: Strand Transfer Catalyzed by Recombinant Integrase
Assays for the strand transfer activity of integrase were conducted in accordance with WO 02/30930 for recombinant integrase. […] For example, the compounds prepared in Examples 1 to 5 were tested in the integrase assay and found to have the IC50 values in Table B. (Compounds 6A and 6B were not tested in this assay.)
Further description on conducting the assay using preassembled complexes is found in Wolfe, A. L. et al., J. Virol. 1996, 70: 1424-1432, Hazuda et al., J. Virol. 1997, 71: 7005-7011; Hazuda et al., Drug Design and Discovery 1997, 15: 17-24; and Hazuda et al., Science 2000, 287: 646-650.

[6] = Human immunodeficiency virus 1, IIIB, HeLaP4-2, HeLa P4-2 cells

| Compound | IC95 (nM) in the presence of 10% FBS (HIV-1) [nM] | Number of fold shift in IC50 versus wild type IIIB, G140S/Q148H [1] | Number of fold shift in IC50 versus wild type IIIB, Q148R [2] | Number of fold shift in IC50 versus wild type IIIB, N155H [3] | Number of fold shift in IC50 versus wild type IIIB, Y143R [4] | IC50 (wild type IIIB; [6]) [nM] | IC50 ([5]; read-out: IC50) [nM] | IC50 (wild type IIIB; HeLa P4-2 cells) [nM] | IC50 ([5]; IC50 (nM)) [nM] |
| --- | --- | --- | --- | --- | --- | --- | --- | --- | --- |
| CC[C@@H]1COC[C@H](N(C)C(=O)C(=O)N(C)C)c2nc(C(=O)NCc3ccc(F)cc3)c(O)c(=O)n21 [Compound 5C, N-((6R,10R)-6-ethyl-2-{[(4-fluorobenzyl)amino]carbonyl}-3-hydroxy-4-oxo-6,7,9,10-tetrahydro-4H-pyrimido[1,2-d][1,4]oxazepin-10-yl)-N N′N′-trimethylethanediamide] | 14 | 116 | 7 | 7 | 2 | 21 | 41 | – | – |
| Cc1cc(CNC(=O)c2nc3n(c(=O)c2O)[C@H](C)COC[C@@H]3N(C)C(=O)C(=O)N(C)C)ccc1F [Compound 4C, N-((6R,10R)-2-{[(4-fluoro-3-methylbenzyl)amino]carbonyl}-3-hydroxy-6-methyl-4-oxo-6,7,9,10-tetrahydro-4H-pyrimido[1,2-d][1,4]oxazepin-10-yl)-N,N′,N′-trimethylethanediamide] | 10 | 11 | 3 | 3 | 1 | 26 | 48 | – | – |
| Cc1cc(CNC(=O)c2nc3n(c(=O)c2O)CC(C)(C)CC[C@H]3N(C)C(=O)C(=O)N(C)C)ccc1F [Compound 1A, N-((10R)-2-{[(4-fluoro-3-methylbenzyl)amino]carbonyl}-3-hydroxy-7,7-dimethyl-4-oxo-4,6,7,8,9,10-hexahydropyrimido[1,2-a]azepin-10-yl)-N,N′,N′-trimethylethanediamide] | 12 | 9 | 2 | 1 | 1 | 41 | 42 | – | – |
| CCN(C(=O)C(=O)N(C)C)[C@H]1CC[C@H](OC)Cn2c1nc(C(=O)NCc1ccc(F)cc1)c(O)c2=O [Compound 6B, N-ethyl-N-((7S,10S)-2-{[(4-fluorobenzyl)amino]carbonyl}-3-hydroxy-7-methoxy-4-oxo-4,6,7,8,9,10-hexahydropyrimido[1,2-a]azepin-10-yl)-N,N-dimethylethanediamide] | 14 | >100 | >100 | 13 | >100 | 13 | – | – | – |
| COC1(C)CCC(N(C)C(=O)C(=O)N(C)C)c2nc(C(=O)NCc3ccc(F)c(C)c3)c(O)c(=O)n2C1 (single isomer, unassigned) [Compound 2D, N-(2-{[(4-fluoro-3-methylbenzyl)amino]carbonyl}-3-hydroxy-7-methoxy-7-methyl-4-oxo-4,6,7,8,9,10-hexahydropyrimido[1,2-a]azepin-10-yl)-N,N′,N′-trimethylethanediamide] | 14 | 4 | 1 | 2 | 2 | – | – | 23 | 46 |
| CO[C@@]1(C)CC[C@H](N(C)C(=O)C(=O)N(C)C)c2nc(C(=O)NCc3ccc(F)c(C)c3)c(O)c(=O)n2C1 [Compound 2B, N-((7S,10S)-2-{[(4-fluoro-3-methylbenzyl)amino]carbonyl}-3-hydroxy-7-methoxy-7-methyl-4-oxo-4,6,7,8,9,10-hexahydropyrimido[1,2-a]azepin-10-yl)-N,N′,N′-trimethylethanediamide] | 9 | 190 | 24 | 24 | 3 | 8 | – | – | 41 |
| Cc1cc(CNC(=O)c2nc3n(c(=O)c2O)CC(C)(C)CC[C@@H]3N(C)C(=O)C(=O)N(C)C)ccc1F [Compound 1B, N-((10S)-2-{[(4-fluoro-3-methylbenzyl)amino]carbonyl}-3-hydroxy-7,7-dimethyl-4-oxo-4,6,7,8,9,10-hexahydropyrimido[1,2-a]azepin-10-yl)-N,N′,N′-trimethylethanediamide] | 10 | 34 | 12 | 14 | 1 | 13 | 38 | – | – |
| CC[C@@H]1COC[C@@H](N(C)C(=O)C(=O)N(C)C)c2nc(C(=O)NCc3ccc(F)cc3)c(O)c(=O)n21 [Compound 5D, N-((6R,10S)-6-ethyl-2-{[(4-fluorobenzyl)amino]carbonyl}-3-hydroxy-4-oxo-6,7,9,10-tetrahydro-4H-pyrimido[1,2-d][1,4]oxazepin-10-yl)-N N′ N′-trimethylethanediamide] | 20 | 18 | 14 | 13 | 1 | 26 | 42 | – | – |
| Cc1cc(CNC(=O)c2nc3n(c(=O)c2O)[C@@H](C)COC[C@@H]3N(C)C(=O)C(=O)N(C)C)ccc1F [Compound 4B, N-((6S,10R)-2-{[(4-fluoro-3-methylbenzyl)amino]carbonyl}-3-hydroxy-6-methyl-4-oxo-6,7,9,10-tetrahydro-4H-pyrimido[1,2-d][1,4]oxazepin-10-yl)-N,N′,N′-trimethylethanediamide] | 7 | 20 | 3 | 2 | 2 | 32 | 39 | – | – |
| Cc1ccc(CNC(=O)c2nc3n(c(=O)c2O)[C@H](C)CCC[C@H]3N(C)C(=O)C(=O)N(C)C)cc1F (racemic) [Compound 3A, Racemic-trans-N-(2-{[(3-fluoro-4-methylbenzyl)amino]carbonyl}-3-hydroxy-6-methyl-4-oxo-4,6,7,8,9,10-hexahydropyrimido[1,2-a]azepin-10-yl)-N,N′,N′-trimethylethanediamide] | 18 | 4 | 1 | 1 | – | 31 | 40 | – | – |
| CN(C)C(=O)C(=O)N(C)C1COCCn2c1nc(C(=O)NCc1ccc(F)cc1)c(O)c2=O (single isomer, unassigned; (-)) [Compound W, (−)N-(2-{[(4-fluorobenzyl)amino]carbonyl}-3-hydroxy-4-oxo-6,7,9,10-tetrahydro-4h-pyrimido[1,2-d][1,4]oxazepin-10-yl)-N,N′,N′-trimethylethanediamide, reference compound] | – | >73 | 67 | 29 | 3 | – | – | 26 | – |
| CN(C)C(=O)C(=O)N(C)C1COCCn2c1nc(C(=O)NCc1ccc(F)cc1)c(O)c2=O (single isomer, unassigned; (+)) [Compound V, (+)N-(2-{[(4-fluorobenzyl)amino]carbonyl}-3-hydroxy-4-oxo-6,7,9,10-tetrahydro-4h-pyrimido[1,2-d][1,4]oxazepin-10-yl)-N,N′,N′-trimethylethanediamide, reference compound] | – | >32 | 13 | 10 | 1 | 37 | – | – | – |
